Measurements as given in US8003369B2, “Bacteriolytic agent” (priority 2005, dated 2011).

Columns and labels:
[1] = system: Escherichia coli (E-coli) cell; test: Bacteriolytic power (number of bacterial cells after 3 days vs blank); type: cell-based; details: 50 μl of agent diluted to 50% as surfactant in 0.5 ml E. coli cell solution, 20° C.
Description: Into a 2 ml-screw tube were added 0.5 ml of a solution of an Escherichia coli (E-coli) cell and 50 μl of a bacteriolytic agent aqueous diluted solution which had been diluted so as to be a concentration of 50% as a surfactant with a micropipette, and the mixture was mixed well. The mixture was stored by allowing to stand at 20° C. for 3 days, which was used as a sample, and the number of bacterium cells was measured with a super deep profile measurement microscope (manufactured by KEYENCE CORPORATION, VK-8500). Bacteriolytic power was calculated by a following equation.
As a blank, 50 μl of ion-exchanged water was used in place of a bacteriolytic agent aqueous diluted solution. Bacteriolytic power (%)=[1−(the number of bacterial cells in sample after 3 days/the number of bacterial cells of blank)]×100 Determination Criteria: […]

[2] = cited from earlier work; for pKa (pKa1, first stage dissociation constant): 25° C.

| Compound | Bacteriolytic power (score) [1] | pKa (pKa1, first stage dissociation constant) [2] | other results |
| --- | --- | --- | --- |
| cyclopentane tetracarboxylic acid salt of didecyldimethylammonium [Example 1] | 5 (Bacteriolytic power ≧ 80%) |  |  |
| O=C(O)CCCCC(=O)O [adipic acid] |  |  | pKa2 ([2]; second stage dissociation): 5.3 |
| CCCCCCCCCC[N+](C)(C)CCCCCCCCCC.[Cl-] [compound 3, didecyldimethylammonium chloride, reference compound] | 4 (60% ≦ Bacteriolytic power < 80%) |  |  |
| citric acid salt of didecyldimethylammonium [Example 2] | 5 (Bacteriolytic power ≧ 80%) |  |  |
| CC(=O)[O-].CCCCCCCCCC[N+](C)(C)CCCCCCCCCC [Example 4, acetate salt of didecyldimethylammonium] | 5 (Bacteriolytic power ≧ 80%) |  |  |
| adipate salt of didecyldimethylammonium [Example 3] | 5 (Bacteriolytic power ≧ 80%) |  |  |
| cyclopentanetetracarboxylic acid salt of distearyldimethylammonium [Example 5] | 4 (60% ≦ Bacteriolytic power < 80%) |  |  |
| O=C(O)c1cc(C(=O)O)c(C(=O)O)cc1C(=O)O [pyromellitic acid] |  | 1.9 |  |
| O=C(O)[C@H](O)[C@@H](O)[C@H](O)[C@H](O)CO [gluconic acid] |  | 2.2 |  |
| CCOP(=O)(O)O [ethylphosphoric acid] |  | 1.6 |  |
| CCCCCC(=O)O [caproic acid] |  | 4.9 |  |
| O=C(O)CCCCCCCC(=O)O [azelaic acid] |  | 4.6 |  |
| COP(=O)(O)O [methylphosphoric acid] |  | 1.5 |  |
| O=C(O)CCCC(=O)O [glutaric acid] |  | 4.3 |  |
| N[C@@H](CCC(=O)O)C(=O)O [glutamic acid] |  | 2.3 |  |
